Where a SMILES comes first, the peptide text is derived from it.
Experiments:
HUVECs [1] = type: cell-based, human; conditions: for toxicity to HUVECs (FIG. 15): MTS assay, 1, 10 or 100 nM, statement for high concentration (100 nM)
Description: Cell viability was detected by a methanethiosulfonate (MTS) assay. In brief, 2×10^4 HUVECs were seeded to a 48-well plates in 100 μl endothelial cell medium (ECM, ScienCell Research Laboratory, Cat. 1001, USA) per well and incubated for 24 hrs. The media was removed and the cells were then incubated with media having 2% fetal bovine serum (FBS), in the absence or presence of various peptides, such as PLY, PLY123, PLY4, C70PLY4 or N35PLY4, at a concentration of 1, 10 or 100 nM. After incubation for 18 hours, the media was removed and 20 μl MTS reagents (20%) were added to each well in the final volume of 100 μl and placed in incubator for 1 hours. The optical density was measured at 490 nm using a plate reader.

[2] = system: neointima formation of aorta; test: Neointima formation of aorta (HE stain) in STZ-treated HFD-fed rats; type: in vivo
Description: The ascending part of aorta were taken from mice, including control health mice and HFD induced diabetic mice, with and without treatment of C70PLY4, and kept in 10% formalin buffered for 24 h. The specimens were routinely embedded in paraffin blocks and cut in transversal sections (3 μm). The slides were stained with hematoxylin and eosin. The specimens were analyzed with light microscope.
The present study determined if C70PLY4 attenuates the status of atherosclerosis in HFD-fed rats.

HUVECs [3] = test: Cell apoptosis, TUNEL assay in HUVECs; type: cell-based, human; conditions: positive control of TUNEL and caspase-3 assays
Description: Cell apoptosis was detected by using commercial terminal deoxynucleotidyl transferase-dUTP nick end labeling (TUNEL) and caspase-3 activity kits, i.e., Apo-BrdU in Situ DNA Fragmentation Assay Kit (BioVision) and NucView™ 488 Caspase-3 Enzyme Substrate (Biotium). In brief, after incubation with M199 media in the presence or absence of […] various PLY peptides, at 37° C., 5% CO2 for 1 hour, HUVECs were washed with PBS and fixed with fixation buffer on ice for 20 min. Cells were then soaked in 70% alcohol for 1 hr. After 2 times of wash by washing buffer, cells were incubated in DNA labeling solution for 60 min at 37° C. Cells were then treated with rinse buffer and incubated with antibody buffer for 30 min at room temperature. The cell nuclei were stained with propidium iodide for 30 min. Samples were observed by fluorescent microscopeand photographed charge-coupled device (CCD) camera.

MD2/TLR4 interaction = MD2/TLR4 interaction (Homo sapiens, UniProt O00206); test: In vitro protein competition binding assay for MD2/TLR4 interaction; conditions: MD2 50 nM, peptide 50 μM to 3.05 nM
Chain of MD2/TLR4 interaction (O00206 24-631): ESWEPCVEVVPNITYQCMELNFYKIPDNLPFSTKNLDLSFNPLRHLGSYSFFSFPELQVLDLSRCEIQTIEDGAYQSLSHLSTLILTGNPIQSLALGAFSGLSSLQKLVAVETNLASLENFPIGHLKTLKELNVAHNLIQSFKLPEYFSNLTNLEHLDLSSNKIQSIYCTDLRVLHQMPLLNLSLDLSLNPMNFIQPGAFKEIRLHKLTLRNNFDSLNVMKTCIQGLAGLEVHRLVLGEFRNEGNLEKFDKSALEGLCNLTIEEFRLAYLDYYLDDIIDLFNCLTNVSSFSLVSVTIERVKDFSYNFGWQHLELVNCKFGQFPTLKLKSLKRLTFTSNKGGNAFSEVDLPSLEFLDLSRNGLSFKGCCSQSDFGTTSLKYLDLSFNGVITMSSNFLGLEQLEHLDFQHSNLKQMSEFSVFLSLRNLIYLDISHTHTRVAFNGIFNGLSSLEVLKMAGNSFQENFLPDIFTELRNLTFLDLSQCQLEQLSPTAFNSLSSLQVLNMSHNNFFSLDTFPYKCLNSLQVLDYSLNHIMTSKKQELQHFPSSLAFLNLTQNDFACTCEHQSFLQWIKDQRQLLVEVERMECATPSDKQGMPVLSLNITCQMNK
Description: The recombinant TLR4 protein was diluted in PBS (2 μg/mL) and immobilized on a 96-well (100 ng/well) ELISA plate by incubation at 37° C. for 2 h. The wells were washed three times with PBS, followed by blocking with the addition of 300 μL 5% BSA in PBS at ambient temperature overnight. Then, the plate was rewashed three times with PBST before performed competition binding assay. The binding of MD2 (50 nM) to TLR4 was competed by adding various amounts (2-fold serial dilution from 50 μM to 3.05 nM) of C70PLY4, N35PLY4, or M50PLY4 peptide, and the residual binding was examined using anti-MD2 and anti-mouse-IgG-HRP antibodies diluted in 1% BSA as described in herein.

recombinant TLR4 protein = recombinant TLR4 protein (Homo sapiens, UniProt O00206); test: In vitro protein binding assay for MD2 and TLR4 (ELISA); conditions: TLR4 2 μg/mL coated, MD2 133.3 to 0.065 nM; read-out: Kd, binding affinity to the TLR4 protein
Chain of recombinant TLR4 protein (O00206 24-839): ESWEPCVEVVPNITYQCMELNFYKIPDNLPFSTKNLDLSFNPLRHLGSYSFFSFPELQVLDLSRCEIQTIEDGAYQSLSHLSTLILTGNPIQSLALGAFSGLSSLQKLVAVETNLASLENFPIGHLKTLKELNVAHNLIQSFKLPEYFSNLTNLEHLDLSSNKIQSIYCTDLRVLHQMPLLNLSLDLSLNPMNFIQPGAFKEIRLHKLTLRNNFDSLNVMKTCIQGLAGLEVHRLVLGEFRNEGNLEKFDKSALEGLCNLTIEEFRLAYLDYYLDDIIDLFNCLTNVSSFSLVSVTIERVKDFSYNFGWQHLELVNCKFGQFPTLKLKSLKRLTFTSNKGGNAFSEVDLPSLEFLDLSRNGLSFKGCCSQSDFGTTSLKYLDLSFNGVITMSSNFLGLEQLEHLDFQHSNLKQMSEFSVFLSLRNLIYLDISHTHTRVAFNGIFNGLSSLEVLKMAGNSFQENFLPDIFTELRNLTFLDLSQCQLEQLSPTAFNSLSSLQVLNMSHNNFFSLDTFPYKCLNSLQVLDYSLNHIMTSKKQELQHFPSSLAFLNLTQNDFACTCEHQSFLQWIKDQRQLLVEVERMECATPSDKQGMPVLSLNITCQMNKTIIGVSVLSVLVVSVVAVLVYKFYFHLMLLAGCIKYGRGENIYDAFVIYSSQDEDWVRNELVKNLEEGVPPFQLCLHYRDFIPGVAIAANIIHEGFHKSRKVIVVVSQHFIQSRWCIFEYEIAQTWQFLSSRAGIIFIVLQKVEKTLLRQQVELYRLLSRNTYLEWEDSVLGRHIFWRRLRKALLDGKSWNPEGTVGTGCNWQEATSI
Description: The recombinant TLR4 protein was diluted in phosphate buffer saline (PBS) (2 μg/mL) and immobilized on a 96-well (100 ng/well) enzyme-linked immunosorbent assay (ELISA) plate by incubation at 37° C. for 2 h. The wells were washed three times with PBS, followed by blocking with the addition of 300 μL 5% bovine serum albumin (BSA) in PBS at ambient temperature overnight. Then, the plate was washed three times with PBST (PBS with 0.05% Tween 20 solution) before the addition of the recombinant MD2 protein solutions at various concentrations (2-fold serial dilution from 133.3 to 0.065 nM). The ligands (MD2) and TLR4 proteins were incubated at 37° C. for 2 h, and the plate was then washed three times with PBST, followed by the addition of 100 μL anti-MD2 antibodies diluted in 1% BSA (1:1000). After incubation at ambient temperature for 1 h, the plate was washed with PBST three times, followed by the addition of 100 μL anti-mouse IgG-HRP antibodies diluted in 1% BSA (1:2000). After incubation at ambient temperature for 1 h, the plate was washed with PBST three times, followed by the addition of 100 μL of the HRP substrate (i.e. 3,3′,5,5′-tetramethylbenzidine, TMB) to each well. […] The optical density (OD450) in each well was determined using an ELISA plate reader. […]

TLR4 = test: LPS-induced PMN transendothelial migration, PMNs from wild type C3H/HeN mice; type: cell-based; conditions: for LPS induced PMN migration (FIGS. 11-12): WT mice model
Description: (§1) To obtain mice neutrophils from TLR4-deficient [TLR4(−/−)] C3H/HeJ mice and wild type C3H/HeN mice, inflammation was induced by 0.1 ml of uric acid solution into the peritoneal cavity of the mouse. The uric acid solution (noncrystalline form) was prepared by mixing with saline (10% [wt/vol]) and sonicated for 10 min. Immediately before inoculation, the milky white precipitated uric acid solution was shaken vigorously. Peritoneal exudate cells were harvested 4, 18, or 24 h after injection by two lavages of the peritoneal cavity with 5 ml of cold phosphate-buffered saline (PBS; total volume, 10 ml). Uric acid-induced peritoneal cells (UAPMN) were washed by centrifugation at 200×g for 10 min at 4° C. Followed by hypotonic lysis to eliminate red blood cells, centrifugation and an additional wash were performed. The cells were then resuspended in Krebs-Ringer phosphate buffer (KRG; pH 7.3). The numbers and populations of peritoneal exudate cells were determined by staining the nuclei with Turk reagent and by cytospin centrifugation followed by May-Grünwald-Giemsa staining, respectively. Uric acid injection into the peritoneal cavity gave a yield of 1 to 2×10^7 cells/mouse depending on time of incubation (4 hr). The levels of purity of the uric acid-induced PMN were 95% after 4 h postinjection. Viability of the isolated neutrophils exceeded 95% as determined by trypan blue exclusion. The PMN from TLR4(−/−) C3H/HeJ mice and wild type C3H/HeN mice were then used for PMN transmigration Assay.
Neutrophils from human were isolated blood that was drawn in a syringe containing preservative-free heparin (20 U/ml final), and mixed with an equal volume of PBS containing 3% dextran and then incubated for 20 min at room temperature. The leukocyte-rich plasma (upper layer) was collected and pellet cells was obtained from the plasma by centrifuge and resuspended in 0.9% NaCl. Layer 10 ml Ficoll-Hypaque solution beneath the cell suspension. After centrifuge 1500×g for 20 min, aspirate the Ficoll-Hypaque layer, leaving the neutrophil/RBC pellet. Cells were subjected to hypotonic lysis by resuspending each neutrophil/RBC pellet in cold 0.2% NaCl for 30 sec. At the end of this period, restore isotonicity by adding ice-cold 1.6% NaCl. After centrifuge, resuspend cells in ice-cold PBS/glucose buffer. Neutrophils from mice were isolated from the peritoneum as previously described. See, e.g., Rabes et al., Curr Top Microbiol Immunol 397:215-227 (2016). The cell concentration was adjusted to […]. The viability of the isolated neutrophils exceeded 95%, as determined by Trypan blue exclusion.
Transendothelial migration was performed by using a Transwell system. Transwell filters were pre-seeded with HUVEC monolayers for 24 hrs and transferred to clean 24-well plates. HUVECs were washed twice with DPBS, 500 μl of ECM was added to the Transwell filter compartment and 10^6 neutrophils were then added in upper chamber. Transendothelial migration was stimulated by addition of LPS to the lower chamber to a final concentration of 1 μg/ml. Cells were incubated with the endothelial cells for 1 h at 37° C. At the conclusion of the incubation, migrated cells were collected from the lower chamber and counted in a hemacytometer in triplicate. Percent PMN transmigration was calculated by dividing the number of PMN recovered from the lower chamber by the number of PMN initially added.
PMN transendothelial migration plays an important role in early stage of atherogenesis. […].

[4] = system: PMNs isolated from TLR4(−/−) mice C3H/HeJ; test: LPS-induced PMN transendothelial migration, PMNs from TLR4(-/-) C3H/HeJ mice; type: cell-based; conditions: LPS 1 μg/ml, HUVEC monolayer Transwell
Description: as §1, with “Followed by hypotonic lysis to eliminate red blood cells, centrifugation and an additional wash were performed. The cells were then resuspended in Krebs-Ringer phosphate buffer (KRG; pH 7.3).” left out, “Uric acid injection into the peritoneal cavity gave a yield of 1 to 2×10^7 cells/mouse depending on time of incubation (4 hr). The levels of purity of the uric acid-induced PMN were 95% after 4 h postinjection.” left out, “The PMN from TLR4(−/−) C3H/HeJ mice and wild type C3H/HeN mice were then used for PMN transmigration Assay.” left out
Neutrophils from human were isolated blood that was drawn in a syringe containing preservative-free heparin (20 U/ml final), and mixed with an equal volume of PBS containing 3% dextran and then incubated for 20 min at room temperature. […] The viability of the isolated neutrophils exceeded 95%, as determined by Trypan blue exclusion. […]

## CC[C@H](C)[C@H](NC(=O)[C@H](CCCCN)NC(=O)[C@@H](NC(=O)[C@H](CO)NC(=O)[C@H](CC(C)C)NC(=O)[C@H](CC(N)=O)NC(=O)[C@H](CCCNC(=N)N)NC(=O)[C@@H](NC(=O)[C@H](CC(N)=O)NC(=O)CNC(=O)[C@H](CCCCN)NC(=O)[C@H](CC(C)C)NC(=O)[C@@H]1CCCN1C(=O)[C@@H](NC(=O)[C@H](CO)NC(=O)[C@@H](NC(=O)[C@@H](NC(=O)[C@H](Cc1ccccc1)NC(=O)[C@H](Cc1c[nH]cn1)NC(=O)[C@H](C)NC(=O)[C@@H](NC(=O)[C@H](CC(C)C)NC(=O)[C@H](CC(=O)O)NC(=O)[C@@H](N)CCC(N)=O)[C@@H](C)O)[C@@H](C)O)[C@@H](C)O)[C@@H](C)CC)C(C)C)C(C)C)C(=O)N[C@@H](CCCNC(=N)N)C(=O)N[C@@H](CCC(=O)O)C(=O)N[C@@H](CS)C(=O)N[C@H](C(=O)NCC(=O)N[C@@H](CC(C)C)C(=O)N[C@@H](C)C(=O)N[C@@H](Cc1c[nH]c2ccccc12)C(=O)N[C@@H](CCC(=O)O)C(=O)N[C@@H](Cc1c[nH]c2ccccc12)C(=O)N[C@@H](Cc1c[nH]c2ccccc12)C(N)=O)[C@@H](C)O [N35PLY4] (H-QDLTAHFTTSIPLKGNVRNLSVKIRECTGLAWEWW-NH2)
HUVECs [1]
  toxicity to HUVECs (FIG. 15): no toxic effects

## CC(=O)N[C@@H](CS)C(=O)O [NAC, N-acetylcycteine, reference compound]
[2]
  neointima formation of aorta induced by STZ: partially improve the STZ effect on the neointima formation

## CC[C@@]1(O)C(=O)OCc2c1cc1n(c2=O)Cc2cc3ccccc3nc2-1 [camptothecin, reference compound]
HUVECs [3]
  apoptotic cells: about 60%

## M50PLY4: peptide of 6th to 55th amino acid residues of C70PLY4 (407-456), lacking the N-terminal motif QDLTA, SEQ ID NO: 8 (HFTTSIPLKGNVRNLSVKIRECTGLAWEWWRTVYEKTDLPLVRKRTISIW) [reference compound]
MD2/TLR4 interaction
  blocking capability for MD2 and TLR4 protein interaction (in words): no competitive capability

## MD2: recombinant MD2 protein, an extracellular protein associated with the extracellular domain of TLR4 protein
Recombinant TLR4 protein
  Kd: 18.4 ± 3.9 nM

## N35PLY4m24L25K: N35PLY4 with double mutations, position 24 I to L and position 25 R to K, SEQ ID NO: 7 (QDLTAHFTTSIPLKGNVRNLSVKLKECTGLAWEWW)
TLR4
  LPS induced PMN migration (FIGS. 11-12): inhibitory effects

## N35PLY4m25K (QDLTAHFTTSIPLKGNVRNLSVKIKECTGLAWEWW)
TLR4
  LPS induced PMN migration (FIGS. 11-12): inhibitory effects

## full-length PLY: full length pneumococcal pneumolysin, 1-471 amino acid residues, SEQ ID NO: 1, prepared by recombinant technology [reference compound]
TLR4; PMNs from C3H/HeN mice, LPS 1 μg/ml, HUVEC monolayer Transwell
  PMNs migration, WT mice model (FIG. 10): did not affect the PMNs migration
TLR4
  LPS induced PMN migration (FIGS. 11-12): enhances PMN migration induced by LPS
[4]
  PMNs migration, TLR4(−/−) mice model (FIG. 10): did not affect the PMNs migration
HUVECs [1]; HUVECs, 100 nM, 18 hours, MTS
  cells survived: 30%
HUVECs [1]
  toxicity to HUVECs (FIG. 15): toxic to cells

— patent publication US10287328B2, “Treatment of diabetes, toll-like receptor 4 modulators and methods for using the same” (KeMyth Biotech Co., Ltd., priority 2016, dated 2019)
